# Experimental data taken from article PMC6107127, “Characteristics of the mitochondrial and cellular uptake of MPP^+, as probed by the fluorescent mimic, 4'I-MPP^+” (PLoS ONE, 2018).
# Experiments:
# [1] = Relative HPLC elution times and hydrophobicities; type: physicochemical
# [2] = system: isolated intact MN9D mitochondria; assay: Effects of Ca2+ and inhibitors on MN9D mitochondrial uptake of 4'I-MPP+; parameters: species or system mouse
# Experimental: Intact MN9D cell mitochondria were incubated with 200 μM 4'I-MPP^+ for 45 min at 37 °C in 0, 500 or 1000 nM Ca^2+ containing KCl buffer. When mNCX inhibitors (KBR7943, 2APB and CGP37157) were used, mitochondrial suspensions were initially incubated with 10, 25 or 50 μM inhibitor in KCl buffer for 10 min at 37 °C and then with 200 μM 4'I- MPP^+ for 45 min at 37 °C. After the incubations, samples were centrifuged at 7,000 x g at 4 °C for 10 min and the mitochondrial pellets were treated with 75 μL of 0.1 M HClO4. […] To visualize the effect of CGP37157 on the mitochondrial uptake of 4'I-MPP^+ in live cells, HepG2 cells grown in glass-bottomed plates were incubated with 50 μM CGP37157 for 30 min initially and then with 100 μM 4'I-MPP^+ and 200 nM MitoTracker Green FM in KRB-HEPES for 1 h at 37 °C. After incubation cells were washed and reconstituted with KRB-HEPES, pH 7.4 and 4'I-MPP^+ and MitoTracker Green FM fluorescence images of cells were recorded as detailed above. Controls were treated under the same experimental conditions, except that CGP37157 was omitted from the initial incubation.
# S4 Fig. Effects of Benzamil, Verapamil, FFA, and ruthenium red on the MN9D mitochondrial uptake of 4'I-MPP+. MN9D mitochondrial suspensions were initially incubated with a 50 μM concentration of the desired agent (10 μM Ruthenium red) in KCl buffer for 10 min at 37 °C and then incubated with 200 μM 4'I-MPP+ for 45 min at 37 °C. After the incubations, the […] 4'I-MPP+ contents were quantified by RP-HPLC-UV as described in Material and methods. The data are represented as mean ± S.D (n=3).
# (also on this page, place not known: contol 10uM Ru red BenzamilVerapamil FFA 4I' MPP+ uptake (nmoles/mg) 0.0 0.1 0.2 0.3 0.4 0.5)
# (1 picture or pasted object on this page, not shown here)
# [3] = system: rat brain mitochondrial complex-I (NADH: ubiquinone oxidoreductase); assay: Ubiquinone dependent NADH oxidation (complex-I inhibition); type: biochemical
# Experimental: Isolated rat brain mitochondria were lysed by freeze-thawing in hypotonic media containing 25 mM K3PO4 and 5 mM MgCl2, pH 7.2 [22]. The complex-I (i.e. NADH: ubiquinone oxidoreductase) activity of mitochondrial membrane fragments were determined according to the procedure of Birch-Machin and Turnbull. Briefly, mitochondrial membranes (50 μg protein) were incubated with 130 μM NADH (final concentration) and Antimycine A (2 μg/mL) in a 1.0 mL assay solution containing 25 mM K3PO4, 5 mM MgCl2, 2 mM KCN, 2.5 mg/mL bovine serum albumin, pH 7.2, for 2 min at 37 °C with or without rotenone, MPP^+ or 4'I-MPP^+ (for further details see the corresponding figure legends). The complex-I mediated ubiquinone dependent NADH oxidation was initiated by adding ubiquinone-1 to a final concentration of 65 μM and the initial rates of the reactions were monitored by following the decrease in absorbance at 340 nm with respect to 425 nm reference wavelength for 5 min.
# [4] = system: MN9D cells; assay: Cellular uptake of MPP+ and 4'I-MPP+ (HPLC-UV / fluorescence); type: cell-based, mouse; settings: 100 μM toxin, 60 min, 37 °C, KRB-HEPES
# Experimental: (§1) Cells were seeded into 12-well plates at 0.25 x 10^6 cells/well and grown 2–3 days to about 70–80% confluency. The media was removed and a solution containing 100 μM MPP^+ or 4'I-MPP^+ in warm KRB-HEPES (or without Ca^2+ and with 1.4 mM EGTA) was added to each well and incubated at 37 °C for the desired period of time (see Figure legends for further details). After the incubations, the media were removed and cells were washed with ice-cold KRB-HEPES. Washed cells were suspended in 1.0 mL of ice-cold KRB-HEPES and 50 μL aliquots were withdrawn for protein determination. The remaining cell suspensions were centrifuged at 5000 x g at 4 °C for 5 min and the cell pellets were treated with 75 μL of 0.1 M HClO4. The coagulated proteins were pelleted by centrifugation at 13,200 x g at 4 °C for 8 min and the MPP^+ or 4'I-MPP^+ contents of the supernatants were determined by C18-reversed-phase HPLC-UV (HPLC-UV) as previously described using standard curves constructed from authentic standards. The standard curves for HPLC-UV quantifications were constructed using authentic samples of MPP^+ and 4'I-MPP^+ under the same HPLC-UV separation conditions (S1 Fig).
# (§2) To quantify 4'I-MPP^+ uptake by fluorescence, MN9D or HepG2 cells grown in glass bottomed plates, washed, and reconstituted with KRB-HEPES (1.0 mL), pH 7.4, and mounted on the stage of a Nikon ECLIPSE Ti-S inverted fluorescence microscope. […]
# [5] = system: HepG2 cells; assay: as above; type: cell-based, human; settings: 100 μM toxin, 60 min
# Experimental: as §1, §2
# [6] = system: MN9D cells; assay: MTT cell viability assay; type: cell-based; settings: Mus musculus, 16 h incubation
# Experimental: (§3) Cell viability was determined by the MTT [3-(4,5-dimethylthiazol-2-yl)-2,5-diphenyltetrazolium bromide)] assay. Briefly, cells were seeded on 96-well plates and allowed to grow to about 70–80% confluence. Prior to the experiment, culture media was replaced with KRB-HCO3^- containing desired concentrations of MPP^+ or 4'I-MPP^+ and incubated for 16 h at 37 °C. After the incubation, 10 μL of 5 mg/mL MTT solution was added to each well and incubated for 2 h at 37 °C. The resulting formazan was solubilized by the addition of 210 μL detergent solution [50% DMF/H2O (v/v), 20% SDS (w/v)] followed by incubation at 37 °C for 12 h. The cell viabilities were determined by quantifying solubilized formazan by measuring the difference in the absorbance at 570 nm and 650 nm. Results were expressed as % viability of MPP^+ or 4'I-MPP^+ treated cells with respect to control cells, which were treated under the same conditions except in the absence of the MPP^+ or 4'I-MPP^+.
# [7] = system: HepG2 cells; assay: MTT cell viability assay; type: cell-based, human; settings: MPP+ at 0–1000 μM, 4'I-MPP+ at 0–200 μM; 16 h
# Experimental: as §3
# [8] = system: MN9D cells; assay: Intracellular ATP levels; type: cell-based, mouse; settings: 100 μM, 6 h at 37 °C
# Experimental: (§4) Cells grown in 12-well plates were treated with 100 μM MPP^+ or 4'I-MPP^+ in KRB-HEPES for 6 h at 37 °C. After the treatments, cells were suspended in 1 mL of ice-cold KRB-HEPES and 50 μL samples were withdrawn for protein quantification. The remaining cell suspensions were centrifuged for 3 min at 3,500 x g at 4 °C and the cell pellets were treated with 1 mL of lysis buffer (0.1 M Tris, 1% Triton X-100, pH 7.5) for 2 min and centrifuged at 3,500 x g for 3 min to remove the cell debris. The ATP contents of the supernatants were measured using a fluorometric ATP assay kit (BioVision, Milpitas CA, USA) following the manufacture’s guidelines. All ATP levels were normalized to the protein content of each sample.
# [9] = system: HepG2 cells; assay: Intracellular ATP levels; type: cell-based, human; settings: 100 μM, 6 h at 37 °C
# Experimental: as §4
# [10] = system: MN9D cells; assay: Intracellular ROS (DCFH-DA); type: cell-based, mouse; settings: 100 μM, 1 h at 37 °C
# Experimental: Cells grown in 12-well plates were incubated with 10 μM DCFH-DA in KRB-HEPES for 1 h. […] After the incubations, cells were washed, harvested, solubilized with 0.1 M Tris buffer (pH 7.5) containing 1% Triton X-100, and cell debris were removed by centrifugation at 13,200 x g for 8 min at 4 °C. The content of ROS-oxidized DCFH product, 2',7'-dichlorofluorescein (DCF) in the supernatants were quantified by fluorescence (Ex/Em 488/524 nm). The data were normalized to the protein contents of individual samples. ROS productions in DCFH-DA (50 μM) loaded 250 μM 4'I-MPP^+ treated (4 h) live MN9D cells were visualized by confocal fluorescence microscopy at Ex/Em 488/524 nm using a Leica TCS SP5II microscope.
# [11] = system: MN9D cells; assay: Chromatin condensation test for apoptosis (DAPI); type: cell-based, mouse; settings: 250 μM, 12 h
# Experimental: MN9D cells grown in glass-bottomed plates were treated with 250 μM MPP^+ or 4'I- MPP^+ for 12 h and then with 300 nM DAPI in KRB-HEPES for 15 min in the dark at 37 °C [24]. Then cells were rinsed and PBS was added to cover the cell layer. Increase in nuclear DAPI fluorescence (Ex/Em at 358/461 nm) due to chromatin condensation was observed using a Nikon ECLIPSE Ti-S inverted fluorescence microscope. The controls were treated similarly except that MPP^+ or 4'I-MPP^+ was omitted from the initial incubation medium.
# [12] = system: MN9D or HepG2 cells; assay: Mitochondrial membrane potential depolarization (TMRM); type: cell-based; settings: 500 μM, in about 45 min
# Experimental: MN9D or HepG2 cells grown in glass-bottomed plates were treated with 50 nM TMRM (AnaSpec, Fremont CA, USA) in KRB-HEPES for 45 min in the dark. After mounting on the stage of a Nikon ECLIPSE Ti-S inverted fluorescence microscope, 15–20 ROIs with uniform fluorescence were selected and TMRM fluorescence at Ex/Em at 543/573 nm was recorded at 5 sec time intervals for 3 min. Then, MPP^+ or 4'I-MPP^+ was added to a final concentration of 500 or 100 μM, respectively and TMRM fluorescence measurements were continued for an additional 40 min for MPP^+ and 15 min for 4'I-MPP^+ at 15 sec time intervals. The background fluorescence was subtracted from the ROI fluorescence and averages of corrected data were used to estimate the magnitude of the mitochondrial membrane potential.
# [13] = system: HepG2 cells; assay: Effect of CGP37157 and KBR7943 on 4'I-MPP+-mediated mitochondrial membrane depolarization (TMRM); type: cell-based, human; settings: 50 μM pre-treatment 30 min, 100 μM 4'I-MPP+
# Experimental: HepG2 cells grown in glass-bottomed plates for two days were treated with 50 μM CGP37157 or KBR7943 in KRB-HEPES for 30 min followed by 50 nM TMRM in KRB-HEPES for 45 min. Then plates were mounted on the stage of the microscope and mitochondrial membrane depolarization upon the treatment with 100 μM 4'I-MPP^+ was measured as a function of time as detailed above. The effect of CGP37157 on the 4'I-MPP^+ mediated mitochondrial membrane depolarization at longer time periods was monitored by observing the reduction of TMRM fluorescence from 0 to 4 h incubations in the presence or absence of CGP37157. HepG2 cells were incubated with or without 10 μM CGP37157 followed by 50 nM TMRM, and finally with 4'I-MPP^+ (100 μM, 0 or 4 h) and the intracellular TMRM fluorescence was recorded. Controls were carried out using an identical protocol except that either CGP37157 or 4'I-MPP^+ were omitted from the incubation media.
# [14] = 50 μM agent, 200 μM 4'I-MPP+ (S4 Fig)
# [15] = 50 μM inhibitor at 200 μM 4'I-MPP+
compound,measurement,setting,value
C[n+]1ccc(-c2ccc(Br)cc2)cc1 [4Br' MPP^+],relative elution time (hydrophobicity),[1]; Buffer:CH3CN 70:30,9.67
same,relative elution time (hydrophobicity),[1]; Buffer:CH3CN:MeOH 60:30:10,7.74
same,relative elution time (hydrophobicity),[1]; Buffer:CH3CN:MeOH 65:25:10,10.30
NC(=NCc1ccccc1)NC(=O)c1nc(Cl)c(N)nc1N [benzamil],effect on uptake of 4'I-MPP+,[2]; [14],no significant effect
C[n+]1ccc(-c2ccc(Cl)cc2)cc1 [4Cl' MPP^+],relative elution time (hydrophobicity),[1]; Buffer:CH3CN 70:30,8.66
same,relative elution time (hydrophobicity),[1]; Buffer:CH3CN:MeOH 60:30:10,7.08
same,relative elution time (hydrophobicity),[1]; Buffer:CH3CN:MeOH 65:25:10,9.17
COc1ccc(CCN(C)CCCC(C#N)(c2ccc(OC)c(OC)c2)C(C)C)cc1OC (centres unmarked) [verapamil],effect on uptake of 4'I-MPP+,[2]; [14],no significant effect
C=C(C)[C@H]1Cc2c(ccc3c2O[C@@H]2COc4cc(OC)c(OC)cc4[C@@H]2C3=O)O1 [rotenone],inhibition of NADH oxidation (complex-I) activity,[3]; 10 μM,about 90%
"C[n+]1ccc(-c2ccccc2)cc1 [MPP^+, 1-methyl-4-phenylpyridinium]",cellular uptake in 1 h,[4],0.6 nmoles/mg of protein
same,cellular uptake in 60 min,[5],about 1.2 nmoles/mg
same,IC50,[6],~125 µM
same,HepG2 cell toxicity,[7],resistant
same,inhibition of the complex-I activity,[3]; 200 μM,21%
same,effect on intracellular ATP levels,[8],deplete intracellular ATP levels
same,effect on intracellular ATP levels,[9],deplete intracellular ATP levels
same,effect on ROS production,[10],increase ROS production
same,apoptotic cell death (chromatin condensation),[11],cause apoptotic MN9D cell death
same,depolarization of the mitochondrial membrane,[12],20–50%
same,relative elution time (hydrophobicity),[1]; Buffer:CH3CN 70:30,5.92
same,relative elution time (hydrophobicity),[1]; Buffer:CH3CN:MeOH 60:30:10,5.28
same,relative elution time (hydrophobicity),[1]; Buffer:CH3CN:MeOH 65:25:10,6.02
N.N.N.N.N.N.N.N.N.N.N.N.N.N.[Cl-].[Cl-].[Cl-].[Cl-].[Cl-].[Cl-].[O-2].[O-2].[Ru+3].[Ru+3].[Ru+4] [ruthenium red],inhibition of 4'I-MPP+ uptake,"[2]; 10 μM ruthenium red, 200 μM 4'I-MPP+",~ 10%
C[n+]1ccc(-c2ccc(F)cc2)cc1 [4F' MPP^+],relative elution time (hydrophobicity),[1]; Buffer:CH3CN 70:30,6.44
same,relative elution time (hydrophobicity),[1]; Buffer:CH3CN:MeOH 60:30:10,5.68
same,relative elution time (hydrophobicity),[1]; Buffer:CH3CN:MeOH 65:25:10,6.60
N=C(N)SCCc1ccc(OCc2ccc([N+](=O)[O-])cc2)cc1 [KBR7943],effect on uptake of 4'I-MPP+,[2]; [15],inhibit the uptake
same,effect on 4'I-MPP+ mitochondrial membrane depolarization,[13],significantly reduced
NCCOB(c1ccccc1)c1ccccc1 [2APB],effect on uptake of 4'I-MPP+,[2]; [15],inhibit the uptake
